Tests used:
CD8+ T cells = assay: exogenous autologous normal donor restimulation assay, TNFα/IFNγ double positive CD8+ T cells by flow cytometry; assay type: cell-based, human; conditions: for Fold change (CD8+) vs. DMSO: maximum CD8+ T-cell response (TNFα and IFNγ); for Fold change (CD8+) vs. DMSO / Frequency (TNFα + IFNγ + CD8 T cells): donor independent, peptide pool 10 μg/mL, healthy donors; for Frequency (TNFα + IFNγ + CD8 T cells): maximum CD8+ T-cell response; for Immunogenic (yes/no): positive if CD8+ and/or CD4+ double positive TNFα/IFNγ frequency >=3-fold over DMSO and at least 0.01%
Experimental: (§1) The immunogenicity of neoantigens was assessed using the exogenous autologous normal donor restimulation assay. […] The lyophilized peptides were solubilized in 100% DMSO.
(§2) CD1c+ Dendritic Cells (CD1c+DC) isolated from human healthy PBMCs were thawed using media (IMDM (Gibco) supplemented with glutamine, HEPES, 5% human serum (Sigma), and 1× Pen-Strep). DC cells were resuspended in media supplemented with IL-4 (Peprotech, 20 ng/mL) and GM-CSF (Gibco, 20 ng/mL), plated in 6 well microplates, and rested overnight at 37° C. and 5% CO2 incubator. The following day, DC cells were counted and plated in a 96 well round bottom microplate at a concentration of 30,000 viable cells per well. Lyophilized neoantigen peptide pools (15-mer peptides with 8-mer overlapping peptide sequences) were solubilized in 100% DMSO with a stock concentration of 20 mg/mL Neoantigen peptides pools were added to DCs for a final concentration of 10 μg/mL and rested for 2 hours at 37° C. and 5% CO2 incubator. CEF Peptide Pool “Plus” (Cellular Technologies, Ltd.) was utilized as a positive control (each viral peptide at a final concentration of 4 ug/ml) and DMSO at the same final concentration (0.05%) as the experimental peptides was utilized as a negative control. After 2 hours, DC cells were irradiated with 50 gray of ionizing radiation. Autologous CD3+ Pan-T cells isolated from human normal PBMCs were thawed using media. Following irradiation, autologous Pan-T cells were added to the irradiated DCs at 300,000 viable cells per well. Human IL-15 (Peprotech) was added to all wells at final concentration of 10 ng/ml. Plates were incubated at 37° C. and 5% CO2 incubator for a total of 12 days. Media was refreshed every 2-3 days with IL-15 (R&D System, 10 ng/mL final concentration) and IL-2 (R&D systems, 10 IU/mL final concentration).
(§3) On Day 11, cells were re-stimulated with identical experimental peptide pools or controls, at same concentration as peptide stimulation on Day 1. Protein Inhibitor Cocktail (eBioscience) was added to every well and plate was incubated overnight for 14-16 hours at 37° C. and 5% CO2 incubator. On Day 12, cells were stained for surface and intracellular flow cytometry analysis. The cells were washed with PBS and stained with Live/Dead Fixable Aqua Dead Cell stain (Thermo-Fisher). Following the live/dead stain, cells were blocked using Biotin-Fre Fc Receptor Blocker (Accurate Chemical & Scientific Corp). Extracellular cellular flow panel ([…] per well in 50 μL) consisted of CD3 PerCP-Cy5.5 (Biolegend), CD4 BV421 (Biolegend), and CD8 APC-Cy7 (Biolegend). After extracellular staining, cells were fixed and permeabilized using Foxp3/Transcription Factor Staining Buffer Set (eBioscience) and stained for intracellular proteins (1:50 dilution) using TNFα FITC (R&D Systems) and IFNγ BV785 (Biolegend). Cells were washed and resuspended in stain buffer, analyzed, and recorded in a BD Celesta flow cytometer.
(§4) Flow cytometry analysis was conducted on FlowJo v10.6 software. Cells were gated on live, singlet, CD3+, CD4+ and CD8+ T cells. The CD8+ and CD4+ T cells were analyzed for TNFα and IFNγ expression.
(§5) The immunogenicity of neoantigens was first investigated in 9-16 healthy donors.

CD4+ T cells = assay: exogenous autologous normal donor restimulation assay, TNFα/IFNγ double positive CD4+ T cells by flow cytometry; assay type: cell-based, human; conditions: donor independent, peptide pool 10 μg/mL, healthy donors; for Fold change (CD4+) vs. DMSO: maximum CD4+ T-cell response (TNFα and IFNγ); for Frequency (TNFα + IFNγ + CD4 T cells): maximum CD4+ T-cell response
Experimental: as §1, §2, §3, §4, §5

Sequence | Fold change (CD8+) vs. DMSO (CD8+ T cells) [fold] | Frequency (TNFα + IFNγ + CD8 T cells) (CD8+ T cells) [%] | Immunogenic (yes/no) (CD8+ T cells) | Fold change (CD4+) vs. DMSO (CD4+ T cells) [fold] | Frequency (TNFα + IFNγ + CD4 T cells) (CD4+ T cells) [%]
LCAISVDRCAALPARAPAPPRPARRPHRGLCAVRRPLGAPRRFVAVAVP [AS159, neoantigen, alternative splicing of DRD4] | 39.04 | 0.12 | Yes | 12.5 | 0.081
LDLAGNARPCRSQSPTSSDQTPSVPSLGSPELPDGEEGGSPDGSPQESEQVRQGQHV [AS103, neoantigen, alternative splicing of GTF2IRD1] | 48.82 | 0.83 | Yes | 6.62 | 0.086
LEEEFISEWRRCLLCSYLQW [AS63, neoantigen, alternative splicing of IMPG2] | 185.74 | 0.5 | Yes | 13.54 | 0.15
LLFFVAGEVLRHEEFE [FUS15, neoantigen, gene fusion NXN->GLOD4] | 8.84 | 0.19 | yes | 16.21 | 0.08
LLFPYNQLDLHLHRPSGSRKNEIHWDKCFSSED [AS68, neoantigen, alternative splicing of PKHD1L1] | 17.52 | 0.11 | Yes | 5.43 | 0.024
LRLRPNRRRASSAQTAPTSSLSLWSGASRRRRPAGGHMWCTAGRPSSRSGQNLTGTCTMKPLAWETFPTCWAWWGTSWATQSGSGGMPSQAATASRCCWWWTTRWFASMARSMCRTMSSPS [AS1] | 29.8 | 0.57 | Yes | 16.77 | 0.15
LRSLAGTYGRSPSPATRRKRSWSC [FUS25, neoantigen, gene fusion CLCF1->POLD4] | 2.79 | 0.048 | Yes | 16.49 | 0.059
LSPGGACVDIDECDRQ [AS81, neoantigen, alternative splicing of FBN3] | 10.83 | 0.1 | Yes | 3.22 | 0.028
MAGGVLRRLLCREPDRDGDKGASREETVVPLHIGDPVVLPGIGQCYSALF [FUS1, neoantigen, gene fusion TSTD1->F11R] | 2.79 | 0.06 | yes | 5.43 | 0.011
MHRKLQARSPSLCTGHPPQAA [AS75, neoantigen, alternative splicing of TSPAN10] | 2.64 | 0.16 | Yes | 3.46 | 0.014
MPGHGAICSGSSRQPD [AS82, neoantigen, alternative splicing of IMPG2] | 13.55 | 0.82 | Yes | 5.88 | 0.026
MSQESDKNGLSSRSWMNTWILPEVL [AS102, neoantigen, alternative splicing of GRHL2] | 5.65 | 0.096 | Yes | 4.47 | 0.029
NANSRLPEACEK [AS100, neoantigen, alternative splicing of FRYL] | 63.36 | 0.099 | Yes | 6.02 | 0.039
NIEDVATEDGRHGGCHHGPGR [AS71, neoantigen, alternative splicing of SLC6A2] | 11.78 | 0.074 | Yes | 10.95 | 0.038
NLQLLTQGYSGIWRYP [AS118, neoantigen, alternative splicing of SAMD12] | 2.42 | 0.038 | Yes | 5.25 | 0.034
NYGNLFSLAGSLHFTA [AS89, neoantigen, alternative splicing of ZNF727] | 142.04 | 0.26 | Yes | 7.02 | 0.061
PGHGAICREEV [AS62, neoantigen, alternative splicing of IMPG2] | 28.06 | 0.055 | Yes | 14.25 | 0.063
PSLSTRLTSKDPQPLQSHYWGLIGNDPFLRSKKRVN [AS4, neoantigen, alternative splicing of MUC16] | 7.55 | 0.068 | Yes | 11.53 | 0.093
PSPSTPNHSQQAICHPGRRP [AS105, neoantigen, alternative splicing of MPRIP] | 1.76 | 0.02 | Yes | 14.72 | 0.14
PSSLPGPTGKYQSMVFGAWLMSVNISVYTLLEHG [AS140, neoantigen, alternative splicing of MUC16] | 115.04 | 0.22 | Yes | 79.1 | 0.14
QATPSSILCFRLACLWLLRKGLLDLTW [AS15, neoantigen, alternative splicing of IMPG2] | 48.05 | 0.08 | Yes | 11.36 | 0.023
QHLQQEACVTSAGKQS [AS19, neoantigen, alternative splicing of PLEKHG4B] | 182.29 | 0.7 | Yes | 5.69 | 0.06
QLNLSETQFAQYAEIV [FUS2, neoantigen, gene fusion VAX2->ATP6V1B1] | 593.75 | 2.28 | yes | 21.76 | 0.026
QTDFAYDSGKRLGWGRVACDQVFS [AS3, neoantigen, alternative splicing of ETV4] | 133.13 | 0.43 | Yes | 7.31 | 0.1
